What was measured:
Type in all cases: binding
[1] = biological target: IsdB-N2 (C-terminal NEAT domain of IsdB) (Staphylococcus aureus, UniProt Q7A656); experiment: […] Å crystal structure
[2] = biological target: IsdB-N2 M362L (Staphylococcus aureus, UniProt Q7A656, M362L); experiment: Trp fluorescence quenching
[3] = biological target: IsdA-N1 (IsdA NEAT domain) (Staphylococcus aureus, UniProt Q7A655)

C=CC1=C(C)C2=Cc3c(C=C)c(C)c4[n]3[Fe][n]3c(c(C)c(CCC(=O)O)c3=CC3=NC(=C4)C(C)=C3CCC(=O)O)=CC1=N2 [heme]
Kd [1]: < 0.38 µM | Kd [2]: < 0.49 µM | stopped-flow Soret spectroscopy of heme transfer from holo-IsdB-N2 to apo-IsdA-N [3]: 82 ± 6 s^–1
